Reference: ChEMBL document CHEMBL3430912, “GSK Tres Cantos Anti-Kinetoplastid Screening (TCAKS) Data”

What was measured:
Leishmania donovani [1] = test: GSK_TCAKS: pIC50 Leishmania donovani viability assay using fluorescence intensity. Assay plates (1536-well) were prepared by adding 30nL per well of compound. For single shot assay, the final compound concentration was 5uM. […] Briefly, eGFP LdBOB axenic amastigotes were harvested, fixed and counted in a CASY cell counter (Roche-Applied Science). A final concentration of 1.5 * 10^5 cells per well were prepared in amastigote media containing 500 U/mL penicillin/streptomycin (Invitrogen) and 6uL was dispensed to each experimental well using a Multidrop Combi dispenser (Thermo Scientific). 6uL of assay media was dispensed to control columns used as reference for 100% compound response. Following incubation for 72 h at 37C, 5% CO2, 2 uL of resazurin was added to each well at a final concentration of 0.5 mM in phosphate buffered saline (PBS) with IGEPAL (Sigma-Aldrich), 0.05% (v/v).; assay type: functional, organism-based
Leishmania donovani [2] = test: (§1) GSK_TCAKS: pIC50 Leishmania donovani Imaging: Infected Macrophages. Assay plates (384-well) were prepared by adding 250nL of compound to each well. For single shot assay, the final compound concentration was 5 uM. […] Automated image analysis was performed with a script developed on Acapella High Content Imaging and Analysis Software (PerkinElmer). Output: Percent of infected macrophage cells were reported for each well.; assay type: functional, organism-based, Homo sapiens; conditions: THP-1
Trypanosoma cruzi [3] = test: GSK_TCAKS: pIC50 Trypanosoma cruzi viability assay using beta-GAL activity. This assay was run at single shot at 5uM compound concentration per well. The biological reagents consisted of NIH-3T3 host cells and trypomastigotes parasitic cells; both cell types were set to a 3.3 * 10^5 cells/mL dilution in assay DMEM by means of a CASY cell counter device using a 60um capillary. 6 uL of the mixture were dispensed per well (about 1 * 10^3 host-cells and 1 * 10^3 parasites) with a Multidrop Combi dispenser. […] In all wells, the percentage of DMSO never exceeded 0.5%. Plates incubated for four days at 37C, 5% CO2. The substrate used for the assay fluorescence intensity (FLINT) readout was resorufin-beta-D-galactopiranoside (Sigma-Aldrich) at 5uM per well. It was diluted in PBS supplemented with the soft detergent Igepal (Fluka).; assay type: functional, organism-based, Mus musculus; conditions: Tulahuen, NIH3T3
NIH3T3 = test: GSK_TCAKS: pIC50 NIH 3T3 cell line viability assay using luminiscence. Tissue culture surface treated assay plates (1536-well) were used. […] The 100% cells survival control was determined exposing the host-cells to a 0.5% DMSO concentration, whereas the 100% toxicity control was achieved by seeding the cells in presence of Amphotericin B at 50uM. Plates were incubated for four days at 37C, 5% CO2. The assay readout was developed by addition of 5uL of CellTiter-Glo Reagent following the manufacturer's instructions. Luminiscence was measured using a ViewLux.; assay type: functional, cell-based; conditions: Mus musculus, NIH3T3, 96 h
[4] = test system: Trypanosoma brucei brucei; test: GSK_TCAKS: pIC50 Trypanosoma brucei viability assay using luminiscence. Assay plates (1536-well) were prepared. T. brucei cultures were harvested and counted in a CASY cell counter. A parasite suspension was prepared at a final concentration of 5 * 10^4 cells/mL in complete HMI9 medium and 6uL was dispensed to all wells containing compounds using a Multidrop Combi dispenser. 6uL of HMI9 media with 0.4% DMSO were dispensed to control columns. Plates were incubated for 24 h at 37C, 5% CO2 then tempered for 10 min at room temperature. ATP content was quantified by adding 4 uL of CellTiter-Glo Reagent (Promega) according to the manufacturer's instructions. Luminescence was measured using a ViewLux.; assay type: functional, organism-based; conditions: Lister 427, CASY
Trypanosoma cruzi [5] = test: (§2) GSK_TCAKS: pIC50 Trypanosoma cruzi Imaging: Infected Cells. […] Cells were then washed once with PBS before infection. T. cruzi trypomastigotes, collected at days 5 to 8 after infection from LLC-MK2 parasite infected cultures, were allowed to swim out for 4h at 37C from a centrifuged pellet (2,500 rpm/10 min/room temperature). Trypomastigotes were then collected and counted in a CASY Cell Counter. Trypomastigotes, in supplemented DMEM, were added to H9c2 cultures in a multiplicity of infection of 1 and incubated for 18 h. Cells were washed once with PBS before incubation of the infected H9c2 monolayer with trypsin (Life-Technologies) to detach cells from the flask. Cells were counted in a CASY Cell Counter using a 150 um capillary and their density set at 5 * 10^4 cells per mL in supplemented assay DMEM. Infected H9c2 were dispensed into 384-well poly-lysine coated assay plates at 50uL per well using a Multidrop Combi dispenser. After seeding them, the plates were incubated at 37C, 5% CO2 for 72h. Cultures were then fixed and stained by addition of 50 uL of a solution containing 8% formaldehyde and 4 uM DRAQ5 DNA dye (BioStatus, UK) per well. […] Five images were collected per well for reliable statistical analysis. Automated image analysis was performed with a script developed on Acapella High Content Imaging and Analysis Software (PerkinElmer). Output: percentage of infected cells per well as a second infection marker.; assay type: functional, organism-based, Rattus norvegicus; conditions: H9c2, 4 h
[6] = GSK_TCAKS: pIC50 HepG2 human cell line viability assay using luminiscence. […] Seeding density was checked to ensure that new mono-layers were not more than 50% confluent at the time of harvesting. Cell suspension was added to 500 mL of the same medium at a final density of 1.2 * 10^5 cells/mL. This cell suspension was dispensed (25 uL, 3000 cells per well) into 384-well clear-bottom plates using a Multidrop Combi dispenser. Prior to addition of the cell suspension, the screening compounds (250 nL) were pre-dispensed into the plates with an Echo liquid handler. Plates were incubated for 48 h at 37C, 5% CO2. After incubation, plates equilibrated at room temperature for 30 min before proceeding to develop the luminescent signal. The signal developer, CellTiter-Glo Reagent, was allowed to equilibrate at room temperature for 30 min and added to the plates (25uL per well) using a Multidrop Combi dispenser. Plates were left for 10 min at room temperature for stabilization and then read using a ViewLux.; assay type: toxicity, cell-based
[7] = test system: Trypanosoma brucei brucei; test: GSK_TCAKS: pIC50 Trypanosoma brucei viability assay using fluorescence intensity. Assay plates (1536-well) were prepared by dispensing 25nL of compound solution per well using an Echo acoustic dispenser (Labcyte).; assay type: functional, organism-based; conditions: Lister 427, 2 h
Trypanosoma cruzi [8] = test: as §2, with “H2C9” for “Trypanosoma cruzi”, “H9c2 Host Cardiomyocytes.” for “Infected Cells.”, “Number” for “percentage”, “H9c2 Host Cardiomyocytes nuclei to determine drug-related cytotoxicity.” for “infected cells per well as a second infection marker.”; assay type: functional, organism-based, Rattus norvegicus; conditions: H9c2, 4 h
Trypanosoma cruzi [9] = test: GSK_TCAKS: pIC50 Trypanosoma cruzi Imaging: Amastigotes/Cell. […] Cells were then washed once with PBS before infection. T. cruzi trypomastigotes, collected at days 5 to 8 after infection from LLC-MK2 parasite infected cultures, were allowed to swim out for 4h at 37C from a centrifuged pellet (2,500 rpm/10 min/room temperature). Trypomastigotes were then collected and counted in a CASY Cell Counter. Trypomastigotes, in supplemented DMEM, were added to H9c2 cultures in a multiplicity of infection of 1 and incubated for 18 h. Cells were washed once with PBS before incubation of the infected H9c2 monolayer with trypsin (Life-Technologies) to detach cells from the flask. Cells were counted in a CASY Cell Counter using a 150 um capillary and their density set at 5 * 10^4 cells per mL in supplemented assay DMEM. Infected H9c2 were dispensed into 384-well poly-lysine coated assay plates at 50uL per well using a Multidrop Combi dispenser. After seeding them, the plates were incubated at 37C, 5% CO2 for 72h. Cultures were then fixed and stained by addition of 50 uL of a solution containing 8% formaldehyde and 4 uM DRAQ5 DNA dye (BioStatus, UK) per well. […] Five images were collected per well for reliable statistical analysis. Automated image analysis was performed with a script developed on Acapella High Content Imaging and Analysis Software (PerkinElmer). Output: number of amastigotes per cell as infection level measurement.; assay type: functional, organism-based, Rattus norvegicus; conditions: H9c2, 4 h
Leishmania donovani [10] = test: as §1, with “THP-1 Host” for “Infected”, “THP-1 cell count” for “Percent of infected macrophage cells”; assay type: functional, organism-based, Homo sapiens
Leishmania donovani [11] = test: as §1, with “Amastigotes/Macrophages.” for “Infected Macrophages.”, “Average number” for “Percent”, “amastigotes per” for “infected”, “cell” for “cells”; assay type: functional, organism-based, Homo sapiens; conditions: THP-1
[12] = biological target: Sterol 14-alpha demethylase (Trypanosoma cruzi (strain CL Brener), UniProt Q7Z1V1); test: GSK_TCAKS: pIC50 CYP51 from Trypanosoma cruzi.; assay type: functional
Sequence of Sterol 14-alpha demethylase (Q7Z1V1 whole entry): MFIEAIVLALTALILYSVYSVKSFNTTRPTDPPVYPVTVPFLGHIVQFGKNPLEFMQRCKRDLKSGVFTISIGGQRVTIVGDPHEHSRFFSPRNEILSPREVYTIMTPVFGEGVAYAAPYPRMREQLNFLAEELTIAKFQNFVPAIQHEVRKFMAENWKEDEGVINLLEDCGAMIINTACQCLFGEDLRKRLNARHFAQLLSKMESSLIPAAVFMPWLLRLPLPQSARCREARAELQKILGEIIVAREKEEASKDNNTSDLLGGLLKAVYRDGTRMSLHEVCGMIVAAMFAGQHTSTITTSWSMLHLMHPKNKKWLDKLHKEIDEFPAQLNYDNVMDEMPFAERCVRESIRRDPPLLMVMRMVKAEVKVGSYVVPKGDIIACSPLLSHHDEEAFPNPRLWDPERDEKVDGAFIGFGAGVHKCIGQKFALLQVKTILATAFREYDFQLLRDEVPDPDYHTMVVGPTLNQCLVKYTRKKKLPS

Structure (SMILES)	IC50 (Leishmania donovani [1])	IC50 (Leishmania donovani [2])	IC50 (Trypanosoma cruzi [3])	IC50 (NIH3T3)	IC50 [4]	IC50 (Trypanosoma cruzi [5])	IC50 at 48 h [6]	IC50 [7]	IC50 (Trypanosoma cruzi [8])	IC50 (Trypanosoma cruzi [9])	IC50 (Leishmania donovani [10])	IC50 (Leishmania donovani [11])	IC50 [12]
Cc1c(C(=O)NCCCCn2ccnc2)oc2c(C)cccc12	> 50.1 µM	> 50.1 µM	0.224 µM	31.6 µM	> 39.8 µM	0.501 µM	79.4 µM	20 µM	> 50.1 µM	0.501 µM	> 50.1 µM	> 50.1 µM	0.1 µM
Clc1ccc(OCCN2CCCCC2c2cccnc2)c(Cl)c1 (centres undefined)	5.01 µM	> 50.1 µM	0.398 µM	25.1 µM	> 39.8 µM	0.2 µM	79.4 µM	31.6 µM	> 50.1 µM	0.158 µM	> 50.1 µM	5.01 µM	0.0631 µM
O[C@H]1CC[C@H](Nc2nccc(-c3sc(C4CCOCC4)nc3-c3ccc(F)c(F)c3)n2)CC1	3.16 µM	5.01 µM	0.316 µM	39.8 µM	3.98 µM	0.316 µM	25.1 µM	2 µM	31.6 µM	0.2 µM	20 µM	2.51 µM	> 100 µM
c1ccc2c(CCOc3nccnc3-c3ccncc3)c[nH]c2c1	5.01 µM	> 50.1 µM	0.141 µM	20 µM	39.8 µM	0.158 µM	> 100 µM	31.6 µM	> 50.1 µM	0.158 µM	20 µM	20 µM	0.0631 µM
c1cc(-c2ncc(-c3ccn[nH]3)s2)ccn1	> 50.1 µM	> 50.1 µM	0.178 µM	> 50.1 µM	> 39.8 µM	0.251 µM	> 100 µM	20 µM	> 50.1 µM	0.251 µM	> 50.1 µM	10 µM	0.0398 µM
CS(=O)(=O)N[C@H]1CC[C@@H](Oc2cc3cnccc3cc2-c2ccsc2)CC1	31.6 µM	50.1 µM	0.126 µM	15.8 µM	> 39.8 µM	0.158 µM	63.1 µM	15.8 µM	> 50.1 µM	0.1 µM	15.8 µM	20 µM	0.0251 µM
O=C1CCCCCC1(Cc1cnc[nH]1)c1ccc(Cl)cc1Cl (centres undefined)	> 50.1 µM	> 50.1 µM	0.251 µM	20 µM	> 39.8 µM	0.251 µM	79.4 µM	> 39.8 µM	> 50.1 µM	0.316 µM	> 50.1 µM	6.31 µM	0.1 µM
O=C(NCc1nnc2n1CCCCC2)c1ccc(-c2ccc(F)cc2)o1	> 50.1 µM	> 50.1 µM	1.41 µM	> 50.1 µM	0.251 µM	1.58 µM	> 100 µM	0.126 µM	> 50.1 µM	1 µM	> 50.1 µM	> 50.1 µM	79.4 µM
